Like-named read-outs stand apart in the source and are kept apart here.
Experiments:
Drosophila larval NMJ [1] = test: Synaptic transmission at the Drosophila larval NMJ during H2O2-induced oxidative stress (EJP recording until synaptic failure); assay type: cell-based, Drosophila melanogaster
Method: (§1) This study used wild-type Canton-S Drosophila melanogaster third instar wandering larvae (~110 h old). All larvae were raised within an equal population density in 170 mL plastic culture bottles (~100 flies per bottle) containing 50 mL of Nutri-Fly Bloomington Formulation (Genessee Scientific, San Diego, CA, USA) fly food in an incubator at 25 °C under a 12 h:12 h light–dark light cycle.
(§2) Synaptic transmission was measured in Canton-S animals as previously described. Briefly, individual Canton-S third instar larvae were placed in a glass dissecting dish containing 2 mL of Schneider’s insect medium (Sigma, St. Louis, MO, USA) with the dorsal side up using standard insect pins. A longitudinal cut was made along the dorsal surface and the internal organs and central nervous system were removed to expose the underlying segmental muscles and nerves. An extracellular glass suction electrode was used to stimulate segmental nerves in muscle segments. The postsynaptic excitatory junction potential (EJP) was recorded from muscle 6 in abdominal segment A3 or A4 with a sharp intracellular glass recording electrode filled with 3 M KAc (~40 MΩ). The Schneider’s insect medium was replaced with 2 mL of hemolymph-like (HL-3) saline (1.5 mM CaCl2, 20 mM MgCl2, 5 mM KCl, 70 mM NaCl, 10 mM NaHCO3, 5 mM BES, 115 mM sucrose, 5 mM trehalose·2H2O) made fresh daily. EJP recordings were viewed with an oscilloscope and digitally stored using the Scope program (AD Instruments, Colorado Springs, CO, USA) for analysis. Evoked EJPs from repetitive stimulation (0.3 ms pulses delivered suprathreshold with a 1 Hz frequency) of both axons in larval muscle 6 were recorded in a stop-flow condition until synaptic transmission failure (amplitude < 1 mV).
(§3) The same electrophysiology preparation assay described above was performed; however, Canton-S larvae were also exposed to oxidative stress, Trolox, and PsA. Oxidative stress was induced in larval preparations by adding either 1 mM H2O2 or 75 µM NaN3 to the HL-3 saline (all chemicals obtained from Sigma, St. Louis, MO, USA). Larvae subjected to oxidative stress and simultaneous drug treatment included one of the following agents dissolved in DMSO: 5 µM Trolox or 1 µM PsA. A dose-response assay from 0.5 to 10 µM was performed to determine the effective concentration of PsA to prolong synaptic transmission at the Drosophila larval NMJ during oxidative stress exposure (Figure 3).
(§4) All synaptic function data were analyzed using SigmaPlot (Systat Software, San Jose, CA, USA) statistical analysis software. A one-way analysis of variance (ANOVA) test followed by a post hoc multiple comparisons procedure (Holm–Šidák) was used to compare significant differences across all treatment groups. Statistical significance (p < 0.05) was assigned using letter designations, where different letters show significant differences and the same letter assignments are not significant. The letter assignments begin with “A” representing the highest mean, “B” indicating the next highest, and so forth. All vertical bar charts are shown with the means ± SE.

Drosophila larval NMJ [2] = test: Synaptic transmission at the Drosophila larval NMJ during NaN3-induced oxidative stress (EJP recording until synaptic failure); assay type: cell-based, Drosophila melanogaster; conditions: for average time until synaptic failure: mean ± SE
Method: as §1, §2, §3, §4

[3] = design: method as in PMID 22851883; conditions: cited from earlier work
[4] = Pharmacokinetics and tissue distribution of PsA in mice after IV bolus; assay type: in vivo, mouse; conditions: for Kp / half-life: mouse, iv, 50 mg/kg; for AUC (AUClast): linear trapezoidal rule
Method: After spiking with 10 µL of 17β-estradiol (100 µg/mL), 100 µL plasma or […] of tissue homogenate (prepared as above) was mixed with 300 µL of acetonitrile and vortex-mixed for 15 s. The samples were then extracted with 0.6 mL of ethyl acetate. After centrifugation for 10 min at 2000× g, the upper organic layer was removed and evaporated to dryness under reduced pressure in a vacuum centrifuge. The residue obtained was reconstituted in 80 µL acetonitrile with ultrasonic treatment for 1 min and the derivatization was performed as follows.
The HPLC measurements were carried out using a Shimadzu LC-20AT liquid chromatography, which were coupled to a UV-SPD-M20A diode array detector. Data acquisition was performed using EZStart chromatography software package version 7.4. The chromatographic separation of NBD-Cl -derivative of PsA was achieved using Phenomenex Gemini 5 µm C18 110 Å column with a Phenomenex Security Guard C18 guard column (Torrance, CA, USA). The Mobile phase: A: 20 mM AcONH4 (pH = 7.4): ACN (2:1); B: CAN. Running program: 0–5 min, 80%–90% B; 5–7 min, 90% B; 7–12 min, 90%–100% B; 12–15 min, 100%–80% B. The mobile phase flow rate was 1.0 mL/min and the UV detection wavelength was set to 378 nm. Under the chromatographic conditions described, NBD-Cl derivatives of PsA and 17β-estradiol eluted at 7.3 and 5.5 min, respectively.
(Pharsight, Mountain View, CA, USA).

mice = test: Tolerability in mice after 50 mg/kg intravenous injection
Method: Male NIH Swiss mice (25–30 g) were obtained from Harlan Laboratories, Inc. The mice were acclimated (5 mice/cage) for at least 7 days in an AAALAC (Association for Assessment and Accreditation of Laboratory Animal Care) approved animal care facility after arrival. […] The mice were fasted 12 h before receiving PsA and fed 4 h after drug administration. All mice received an IV bolus dose of PsA (50 mg/kg) via the tail vein. The mice (N = 3 per time point) were sacrificed under anesthesia and blood samples were collected at each time point (2, 5, 10, 15, 30, 60, 90, 120, 180, 240, 360, 480, 720 min) into heparinized microcentrifuge tubes. Plasma was prepared by centrifugation of blood at 1000 g for 15 min at 4 °C and stored at −80 °C until analysis. Tissues (brain, liver, and kidney) were also collected and homogenized (with 1:1 water for tissues) and stored at −80 °C until analysis. Plasma, liver, brain, and kidney were processed and analyzed as mentioned above. A calibration curve from each matrix was prepared on the day of analysis to calculate the concentrations of PsA present in the real samples. The concentration–time profiles of PsA in all matrices were plotted.

[5] = male, NIH Swiss, mouse brain, 50 mg/kg IV
[6] = male, NIH Swiss, mouse kidney, 50 mg/kg IV
[7] = male, NIH Swiss, mouse liver, 50 mg/kg IV
[8] = male, NIH Swiss, mouse plasma, 50 mg/kg IV bolus, estimate ± standard error

OO [H2O2, hydrogen peroxide]
average time until synaptic transmission failure (Drosophila larval NMJ [1]; H2O2 1 mM alone, control 132 ± 3 min): 50 ± 2 min
maximal time of synaptic activity before failure (Drosophila larval NMJ [1]; H2O2 1 mM alone, controls 136 or 139 min): 55 min

[N-]=[N+]=[N-].[Na+] [NaN3, sodium azide, reference compound]
average time of synaptic activity until failure (Drosophila larval NMJ [2]; NaN3 75 µM alone, control 130 ± 3 min): 44 ± 3 min
maximal time of synaptic activity before failure (Drosophila larval NMJ [2]; NaN3 75 µM alone, controls 136 or 139 min): 52 min

CC(C)=C[C@H]1C[C@H](C)[C@H]2CC[C@H](C)c3c(O[C@@H]4OC[C@@H](O)[C@H](O)[C@H]4O)c(O)c(C)c1c32 [PsA, pseudopterosin A]
lipophilicity [3]: high lipophilicity
increase of synaptic tolerance (Drosophila larval NMJ [2]; PsA 500 nM during NaN3 75 µM exposure, vs NaN3 alone): 87%
average time until synaptic failure (Drosophila larval NMJ [2]; PsA 500 nM with NaN3 75 µM): 83 ± 5 min
increase of synaptic functional tolerance (Drosophila larval NMJ [2]; PsA 1 µM during NaN3 75 µM exposure, vs NaN3 alone): 152%
maximal synaptic failure time (Drosophila larval NMJ [2]; PsA 1 µM with NaN3 75 µM): 122 min
average time until synaptic failure (Drosophila larval NMJ [2]; PsA 1 µM with NaN3 75 µM, failure = EJP amplitude < 1 mV): 112 ± 4 min
Kp ([4]; male, NIH Swiss, brain / plasma, mouse brain, 50 mg/kg IV, read-out: Relative Exposure (AUCtissue/AUCplasma)): 1.36
half-life ([4]; male, NIH Swiss, brain, mouse brain, 50 mg/kg IV, read-out: Half-life (converted)): 2.91 h
Kp ([4]; male, NIH Swiss, brain, liver, kidney / plasma, all tissues (brain, liver, kidney) vs plasma, 50 mg/kg IV, read-out: relative exposure (RE)): 1.27 to 1.36
Kp ([4]; male, NIH Swiss, brain, liver, kidney / plasma, brain, liver and kidney during the elimination phase, 50 mg/kg IV, read-out: tissue/plasma concentration ratios): > 1
Kp ([4]; male, NIH Swiss, kidney / plasma, mouse kidney, 50 mg/kg IV, read-out: Relative Exposure (AUCtissue/AUCplasma)): 1.28
half-life ([4]; male, NIH Swiss, kidney, mouse kidney, 50 mg/kg IV, read-out: Half-life (converted)): 3.98 h
Kp ([4]; male, NIH Swiss, liver / plasma, mouse liver, 50 mg/kg IV, read-out: Relative Exposure (AUCtissue/AUCplasma)): 1.27
half-life ([4]; male, NIH Swiss, liver, mouse liver, 50 mg/kg IV, read-out: Half-life (converted)): 3.16 h
half-life ([4]; male, NIH Swiss, plasma, brain, liver, kidney, mouse plasma and tissues (brain, liver, kidney), 50 mg/kg IV, read-out: elimination half-life): 3 to 4 h
half-life ([4]; male, NIH Swiss, plasma, mouse plasma, 50 mg/kg IV bolus, two-compartment model, estimate ± standard error, read-out: Distribution Half-life (converted)): 0.05 ± 0.005 h
half-life ([4]; male, NIH Swiss, plasma, mouse plasma, 50 mg/kg IV bolus, two-compartment model, estimate ± standard error, read-out: Elimination Half-life (converted)): 3.21 ± 0.3 h
Cmax [4, 5]: 10000 ng/g
Tmax [4, 5]: 0.5 h
Cmax [4, 6]: 3000 ng/g
Tmax [4, 6]: 1.5 h
Cmax [4, 7]: 10100 ng/g
Tmax [4, 7]: 0.17 h
AUC [4, 8]: 14400 ± 950 ng·h/mL
Cmax [4, 8]: 85.5 ± 7.64 µg/mL
clearance [4, 8]: 58 mL/min/kg
Vd ([4]; male, NIH Swiss, mouse plasma, 50 mg/kg IV bolus, estimate ± standard error, read-out: Vss): 10.1 ± 1.35 L/kg
time of peak mean concentration ([4]; mouse brain, 50 mg/kg IV): 30 min
AUC (AUClast) ([4]; mouse brain, 50 mg/kg IV): 19.49 mg·h/kg
time of peak mean concentration ([4]; mouse kidney, 50 mg/kg IV): 90 min
AUC (AUClast) ([4]; mouse kidney, 50 mg/kg IV): 18.37 mg·h/kg
time of peak mean concentration ([4]; mouse liver, 50 mg/kg IV): 10.2 min
AUC (AUClast) ([4]; mouse liver, 50 mg/kg IV): 18.20 mg·h/kg
tolerability of the dose (mice): well tolerated
increase of synaptic tolerance (Drosophila larval NMJ [1]; PsA 1 µM during H2O2 1 mM exposure, vs H2O2 alone): 26%
maximal synaptic failure time (Drosophila larval NMJ [1]; PsA 1 µM with H2O2 1 mM): 70 min
average time until synaptic transmission failure (Drosophila larval NMJ [1]; PsA 1 µM with H2O2 1 mM, mean ± SE): 63 ± 2 min

Cc1c(C)c2c(c(C)c1O)CCC(C)(C(=O)O)O2 (centres unmarked) [Trolox, 6-hydroxy-2,5,7,8-tetramethylchromane-2-carboxylic acid, reference compound]
increase of synaptic activity (Drosophila larval NMJ [2]; Trolox 5 µM during NaN3 75 µM exposure, vs NaN3 alone): 25%
maximal time until synaptic breakdown (Drosophila larval NMJ [2]; Trolox 5 µM with NaN3 75 µM): 64 min
average time until synaptic failure (Drosophila larval NMJ [2]; Trolox 5 µM with NaN3 75 µM): 55 ± 3 min
increase of synaptic function (Drosophila larval NMJ [1]; Trolox 5 µM during H2O2 1 mM exposure, vs H2O2 alone): 60%
maximal time until synaptic breakdown (Drosophila larval NMJ [1]; Trolox 5 µM with H2O2 1 mM): 85 min
average time until synaptic transmission failure (Drosophila larval NMJ [1]; Trolox 5 µM with H2O2 1 mM, mean ± SE): 80 ± 2 min

Reference: article PMC4820309, “Pseudopterosin A: Protection of Synaptic Function and Potential as a Neuromodulatory Agent” (Marine Drugs, 2016)
